Values quoted from earlier work in US20170266090A1, “ANTIMICROBIAL COMPOSITIONS THAT ARE DERMATOLOGICALLY NON-DRYING” (Marvel Technologies USA, LLC, priority 2016, published 2017).

Conditions: background statement, no source given

Drying time: eight to thirteen
Structure (SMILES): CCO [Ethanol]
